Experimental data from patent publication US20060234237A1 (priority 2004, published 2006).
Where a name gives a salt, the structure may show the parent alone.

Assays:
SW1417 = assay: In vitro cytotoxicity MTS assay; assay type: cell-based; conditions: Homo sapiens, 72 hours, mean of 2 to 5 determinations
SW620 = assay: In vitro cytotoxicity MTS assay; assay type: cell-based; conditions: Homo sapiens, SW-620, 72 hours, mean of 2 to 5 determinations
Colo-201 = assay: In vitro cytotoxicity MTS assay; assay type: cell-based; conditions: Homo sapiens, 72 hours, mean of 2 to 5 determinations
Colo320DM = assay: In vitro cytotoxicity MTS assay
Experimental: (§4) The IC50 for each cell line was assessed by MTS assays. The average IC50 values along with standard deviations were calculated from two to five individual determinations for each cell line. […] The IC50 unit is μM.
(§5) Cytotoxicity was assessed in cells by MTS (3-(4,5-dimethylthiazol-2-yl)-5-(3-carboxymethoxyphenyl)-2-(4-sulphenyl)-2H-tetrazolium, inner salt) assay (T. L. Riss et al., 1992, Mol. Biol. Cell, 3 (Suppl.): 184a).
(§6) To carry out the assays, the colon cells were plated at 4,000 cell/well in 96 well microtiter plates and 24 hours later serial diluted drugs were added. […] The cells were incubated at 37° C. for 72 hours at which time the tetrazolium dye MTS (333 μg/ml final concentration) in combination with the electron coupling agent phenazine methosulfate (25 μM final concentration) was added. A dehydrogenase enzyme in live cells reduces the MTS to a form that absorbs light at 492 nm that can be quantified spectrophotometrically. The greater the absorbency, the greater the number of live cells. The results were expressed as an IC50, which is the drug concentration required to inhibit cell proliferation (i.e., absorbance at 450 mm) to 50% of that of untreated control cells. The mean IC50 and standard deviation (SD) from multiple tests for each cell line were calculated.

HT-29 = assay: In vitro cytotoxicity MTS assay; assay type: cell-based; conditions: Homo sapiens, 72 hours, mean of 2 to 5 determinations
CCD_33C0 = assay: In vitro cytotoxicity MTS assay; assay type: cell-based; conditions: Homo sapiens, 72 hours, mean of 2 to 5 determinations, asterisk = sensitive
LOVO = assay: In vitro cytotoxicity MTS assay; assay type: cell-based; conditions: Homo sapiens, 72 hours, mean of 2 to 5 determinations, asterisk = sensitive
Sk-Co-1 = assay: In vitro cytotoxicity MTS assay; assay type: cell-based; conditions: Homo sapiens, 72 hours, mean of 2 to 5 determinations
T84 = assay: In vitro cytotoxicity MTS assay; assay type: cell-based; conditions: Homo sapiens, 72 hours, mean of 2 to 5 determinations
HCT116S542 = assay: In vitro cytotoxicity MTS assay; assay type: cell-based; conditions: Homo sapiens, 72 hours, mean of 2 to 5 determinations
HCT8 = assay: In vitro cytotoxicity MTS assay; assay type: cell-based; conditions: Homo sapiens, HCT-8, 72 hours, mean of 2 to 5 determinations
SW403 = assay: In vitro cytotoxicity MTS assay; assay type: cell-based; conditions: Homo sapiens, SW-403, 72 hours, mean of 2 to 5 determinations, asterisk = sensitive
CX-1 = assay: In vitro cytotoxicity MTS assay; assay type: cell-based; conditions: Homo sapiens, 72 hours, mean of 2 to 5 determinations
Colo-205 = assay: In vitro cytotoxicity MTS assay; assay type: cell-based; conditions: Homo sapiens, 72 hours, mean of 2 to 5 determinations
HCT116 = assay: In vitro cytotoxicity MTS assay; assay type: cell-based; conditions: Homo sapiens, HCT-116, 72 hours, mean of 2 to 5 determinations
SW837 = assay: In vitro cytotoxicity MTS assay; assay type: cell-based; conditions: Homo sapiens, 72 hours, mean of 2 to 5 determinations
LS174T = assay: In vitro cytotoxicity MTS assay; assay type: cell-based; conditions: Homo sapiens, 72 hours, mean of 2 to 5 determinations, asterisk = sensitive
Colo320HSR = assay: In vitro cytotoxicity MTS assay; assay type: cell-based; conditions: Homo sapiens, COLO-320-HSR, 72 hours, mean of 2 to 5 determinations
SW480 = assay: In vitro cytotoxicity MTS assay
Experimental: as §4, §5, §6

CCD18Co = assay: In vitro cytotoxicity MTS assay; assay type: cell-based; conditions: Homo sapiens, CCD-18Co, 72 hours, mean of 2 to 5 determinations
Caco2 = assay: In vitro cytotoxicity MTS assay; assay type: cell-based; conditions: Homo sapiens, Caco-2, 72 hours, mean of 2 to 5 determinations, asterisk = sensitive
MIP = assay: In vitro cytotoxicity MTS assay; assay type: cell-based; conditions: Homo sapiens, 72 hours, mean of 2 to 5 determinations
[1] = test system: CACO2 colon cancer cell line; conditions: serum starved, 20 ng/ml EGF, 0.5, 6 and 18 hours, vs media alone
Experimental: (§1) Control cells were treated with media alone. The expression profiling was performed, and data was analyzed using GeneChip® Expression Analysis software MAS 5.0 (Affymetrix, Santa Clara, Calif.).
(§2) The colon cells were grown using standard cell culture conditions: RPMI 1640 supplemented to contain 10% fetal bovine serum, 100 IU/ml penicillin, […] streptomycin, 2 mM L-glutamine and 10 mM Hepes (all from GibcoBRL, Rockville, Md.). RNA was isolated from 50-70% confluent cells or drug-treated cells using the RNeasy™ kits commercially available from Qiagen (Valencia, Calif.). Quality of the RNA was checked by measuring the 28s:18s ribosomal RNA ratio using Agilent 2100 bioanalyzer (Agilent, Technologies, Rockville, Md.). Concentration of total RNA was determined spectrophotometrically. 10 μg of total RNA from each cell line was used to prepare biotinylated probe according to the Affymetrix Genechip® Expression Analysis Technical Manual, 2001. Targets were hybridized to Affymetrix high density oligonucleotide array human HG-U133 set chips (Affymetrix, Santa Clara, Calif.). Arrays were then washed, and stained using the GeneChip Fluidics station according to the manufacture's instructions. The HG-U133 set consisting of two GeneChip® arrays contains nearly 45,000 probe sets representing more than 39,000 transcripts derived from approximately 33,000 well-substantiated human genes.
(§3) For the EGF induction studies, the colon cell line CACO2 and the lung cancer H292 cell line were washed 2×PBS, and the media was changed to RPMI without serum. The next day the cells were treated with 20 ng/ml EGF, and eventually lysed for RNA isolation 0.5, 6 and 18 hours post treatment. Gene expression was profiled as described below.

[2] = test system: H292 lung cancer cell line; conditions: serum starved, 20 ng/ml EGF, 0.5, 6 and 18 hours, vs media alone
Experimental: as §1, §2, §3

C#Cc1cccc(Nc2ncnc3cc(OCCOC)c(OCCOC)cc23)c1 [BMS-461453, erlotinib HCl] was tested, and the IC50 (SW1417) was > 10 µM, the IC50 (SW620) was > 10 µM and the IC50 (Colo-201) was > 10 µM. For the same compound, the “Sensitivity of cell line to the EGFR inhibitor” value (Colo320DM; COLO320_DM, does not express EGFR) was “resistant”, the IC50 (Colo320DM; Homo sapiens, COLO 320DM, 72 h) was > 10 µM and the IC50 (HT-29) was > 10 µM. It also gave an IC50 (CCD_33C0) of 2 µM, an IC50 (LOVO) of 2.3 µM and an IC50 (Sk-Co-1) of 9 µM. The IC50 (T84) was > 10 µM, the IC50 (HCT116S542) was > 10 µM and the IC50 (HCT8) was > 10 µM. The IC50 (SW403) was 5.7 µM, the IC50 (CX-1) was > 10 µM and the IC50 (Colo-205) was > 10 µM. The IC50 (HCT116) was > 10 µM, the IC50 (SW837) was 7.2 µM and the IC50 (LS174T) was 3.5 µM. For the same compound, the IC50 (Colo320HSR) was > 10 µM, the IC50 (SW480; Homo sapiens, SW480, 72 h) was > 10 µM and the “Sensitivity of cell line to the EGFR inhibitor” value (SW480; SW480, expressing EGFR) was “insensitive”. For the same compound, the IC50 (CCD18Co) was 7.1 µM, the IC50 (Caco2) was 5.5 µM and the IC50 (MIP) was 9.7 µM.
In the case of epidermal growth factor [EGFR], the “Expression of EphA1 (EPHA1) stimulated” value [1] is reported as “Expression stimulated 2 fold by”, the “Expression of 3-hydroxy-3-methylglutaryl-Coenzyme A synthase 2 stimulated” value [2] is reported as “Expression stimulated 3 fold by” and the “Expression of BTG family, member 2 (BTG2) stimulated” value [2] is reported as “Expression stimulated 2 fold by”. The “Expression of cystic fibrosis transmembrane conductance regulator (CFTR) stimulated” value [2] was “Expression stimulated 2 fold by”, the “Expression of prostaglandin G/H synthase and cyclooxygenase stimulated” value [2] was “Expression stimulated 6 fold by” and the “Expression of serine (or cysteine) proteinase inhibitor, clade B (ovalbumin), member 5 (SERPINB5) stimulated” value [2] was “Expression stimulated 2 fold by”.
